Data published in patent publication US20110144029A1, “Model Systems and Materials for the Study and Treatment of Neurodegenerative Diseases” (BOARD OF REGENTS, THE UNIVERSITY OF TEXAS SYSTEM, priority 2009, published 2011).

Assays:
[1] = system: cerebellar granule neurons; test: Live/Dead (Red/Green) viability assay in cultured cerebellar granule neurons; type: cell-based, rat
Protocol: Neuronal cultures were switched to serum-free medium T-peptide, K-peptide, Core-peptide, V-peptide. VV-peptide, and T (L)-peptide. All peptides were used at 25 μM concentration. Phase contrast micrographs show appearance of the cultures after 24 h of peptide treatment. The Live/Dead viability assay was also performed. Nuclei of dead cells are stained red whereas cytoplasm of living cells are stained green. In the case of sick and dying cells, green staining is condensed;
(§1) Cerebellar granule neurons were switched to serum-free medium containing various concentrations of T-peptide, K-peptide, Core-peptide, V-peptide, VV-peptide, and T (L)-peptide. Cell viability was measured using two independent methods 24 h after peptide treatment and results are graphed. * indicates p<0.05 compared with control cells that were treated with HK: (4A) Results from Red/Green viability assay, (4B) Results from MTT assay;
Culturing and treatment of neurons: Cerebellar granule neurons were cultured from 7-8 day old rats as previously described. The neurons were plated in 24-well with poly-L-lysine coated glass coverslips at a density of ˜1 million cells/well in Basal Eagle's Medium with Earle's salts (BME) supplemented with 10% FCS, 25 mM KCl, 2 mM glutamine and […] gentamicin. To prevent mitosis of glial cells, cytosine arabinofuranoside ([…]) was added to culture 16-20 hrs after plating. Neuronal cultures were treated with peptides 6-7 days after plating. For treatment, the cultures were switched to serum-free medium containing 25 mM KCl (referred to as high potassium or HK medium). Although serum is required for proper maturation, after 5 days in culture, the neurons survive normally in the absence of serum provided depolarizing levels of KCl is added.
Cell viability quantification: Cell viability was quantified using the Live/Dead assays with a commercially available kit (Invitrogen). This is a two-color fluorescence assay utilizing two cell-permeable compounds, calcein acetoxymethyl (calcein AM) and ethidium homodimer-1 (EthD-1). Live cells have intracellular esterases that convert non-fluorescent calcein AM to the intensely green fluorescent calcein, which is retained within the cytoplasm of cells. Because dead cells have damaged membranes, EthD-1 enters and is fluorescent when bound to nucleic acids. EthD-1 stains the nuclei of damaged or dead cells. As recommended by the manufacturer, cells plated in wells with cover-slips were incubated in Live/Dead reagent (1 uM calcein AM and 4 uM EthD-1) for 30 min, and then mounted on slides. Cell viability was also analyzed using the MTT [3-(4,5-Dimethylthiazol-2-yl)-2,5-diphenyltetrazolium bromide] assay based on the evaluation of mitochondrial function. MTT assays were performed as previously described. Briefly, MTT (5 mg/ml in culture medium) was added to the culture medium and the cells incubated at 37° C. for 1 h. The assay was stopped by adding lysis buffer [20% sodium dodecyl sulfate (SDS) in 50% N,N-dimethylformamide, pH 4.7]. Absorbance was measured spectrophotometrically at 570 nm after an overnight incubation at room temperature.

[2] = system: cerebellar granule neurons; test: MTT assay in cerebellar granule neurons; type: cell-based, rat; settings: 24 h peptide treatment
Protocol: as §1
Culturing and treatment of neurons: Cerebellar granule neurons were cultured from 7-8 day old rats as previously described. The neurons were plated in 24-well with poly-L-lysine coated glass coverslips at a density of ˜1 million cells/well in Basal Eagle's Medium with Earle's salts (BME) supplemented with 10% FCS, 25 mM KCl, 2 mM glutamine and […] gentamicin. […]
(§2) Cell viability quantification: Cell viability was quantified using the Live/Dead assays with a commercially available kit (Invitrogen). This is a two-color fluorescence assay utilizing two cell-permeable compounds, calcein acetoxymethyl (calcein AM) and ethidium homodimer-1 (EthD-1). […] Cell viability was also analyzed using the MTT [3-(4,5-Dimethylthiazol-2-yl)-2,5-diphenyltetrazolium bromide] assay based on the evaluation of mitochondrial function. […] Absorbance was measured spectrophotometrically at 570 nm after an overnight incubation at room temperature.

cortical neurons = test: Live/Dead viability assay in cortical neurons; type: cell-based; settings: 24 h, serum-free medium
Protocol: (§3) Primary cultures and cell lines were treated in serum-free medium with T-peptide for 24 hours. Viability was quantified using the Live/Dead assay. * indicates p<0.05 compared with control cells that were treated with serum-free medium without peptide: (6A) Results from the analyses of cerebellar granule neurons, cortical neurons, and kidney fibroblasts cultured from rats, (6B) Results from the HT22 and HEK293 cell lines;
as §2, with “(EthD-1). Live cells have intracellular esterases that convert non-fluorescent calcein AM to the intensely green fluorescent calcein, which is retained within the cytoplasm of cells. Because dead cells have damaged membranes, EthD-1 enters and is fluorescent when bound to nucleic acids. EthD-1 stains the nuclei of damaged or dead cells.” for “(EthD-1).”

kidney fibroblasts = test: Live/Dead viability assay in primary kidney fibroblasts; type: cell-based, rat; settings: 24 h, serum-free medium
Protocol: as §3
Cultures of kidney fibroblasts and treatment with peptides: Kidneys were taken for 7-8 day old rats and placed in Dulbecco's Modified Eagle's Medium (DMEM). They were then diced and trypsinized for 8-12 mins. Trypsin was inactivated with trypsin inhibitor and centrifuged at 500 g for 1 min. Pellets were resuspended in DMEM and broken-up with a pasteur pipette 25 times, then centrifuged at 1000 g rpm for 1 min. […]
as §2

Primary glial cells = test: T-peptide toxicity in primary glial cells; type: cell-based; settings: data not shown
[3] = Live/Dead viability assay in HT-22 cell line; type: cell-based; settings: 24 h, serum-free medium
Protocol: as §3
(§4) HT-22 and HEK293 cell culture: HT-22 cells were maintained in DMEM supplemented with 10% FCS, 50 U/ml penicillin and 50 μg/ml streptomycin. HEK293 were maintained in DMEM supplemented with 10% FCS, 50 U/ml penicillin and 50 μg/ml streptomycin. Both cell lines were treated with peptide at 70-80% confluency in serum-free media.
as §2

[4] = system: human embryonic kidney HEK293T cell line; test: Live/Dead viability assay in HEK293T cell line; type: cell-based; settings: 24 h, serum-free medium
Protocol: as §3, §4, §2

adult rat brains = test: Stereotaxic injection of peptide into adult rat brain; type: in vivo
From the text: Other aggregating peptides unrelated to tau are not neurotoxic. […] To examine this issue, we synthesized two peptides, STVIIE-R9 (designated at ST peptide), previously described by Pastor et al. (Pastor et al., 2008) and another de novo peptide, SQIVYA-R9. We were able to follow the kinetics of aggregation of both peptides into amyloid forming structures using the fluorescence of thioflavin-S and we characterized their morphology by TEM. […] Peptide induces neurodegeneration in the intact rat brain. […] To examine this issue, […] of T-peptide and K-peptide was sterotaxically injected into adult rat brains. Each animal received 2 injections—on one side into the striatum, and on the other side into the hippocampus. Rats were analyzed 1 week later. […] No damage is seen in the hippocampus however.

## CC[C@@H](C)[C@@H](NC(=O)[C@@H](CCC(N)=O)NC(=O)[C@H](NC(C)=O)C(C)C)C(=O)N[C@@H](C(=O)N[C@H](Cc1ccc(O)cc1)C(=O)N[C@H](CCCCN)C(=O)N[C@@H](CCCNC(=N)N)C(=O)N[C@@H](CCCNC(=N)N)C(=O)N[C@@H](CCCNC(=N)N)C(=O)N[C@@H](CCCNC(=N)N)C(=O)N[C@@H](CCCNC(=N)N)C(=O)N[C@@H](CCCNC(=N)N)C(=O)N[C@@H](CCCNC(=N)N)C(=O)N[C@@H](CCCNC(=N)N)C(=O)N[C@@H](CCCNC(=N)N)C(N)=O)C(C)C [T-peptide, Ac-vqivyk-R9—NH2]
[1]; 24 h, serum-free HK medium
  doses at which significant death is observable: ≥ 5 µM
[1]; 24 h peptide treatment, HK medium
  neurotoxicity / effect on neuronal survival: induces cell death in a concentration-dependent manner
[2]
  MTT assay result (mitochondrial function, words): confirmed using the MTT assay
Cortical neurons
  sensitivity to T-peptide induced toxicity relative to cerebellar granule neurons: slightly less sensitive
Kidney fibroblasts
  sensitivity to T-peptide toxicity relative to neuronal cell types: much less sensitive
Primary glial cells
  sensitivity to T-peptide toxicity relative to neurons: less sensitive than neurons
[3]
  sensitivity to T-peptide toxicity: moderate level of sensitivity
[4]
  doses up to which the cell line is resistant: up to 50 μM
Adult rat brains; 200 mg injected into striatum and hippocampus, analyzed 1 week later
  brain damage compared with K-peptide-injected rats: display more damage than K-peptide-injected rats
Adult rat brains; 200 mg injected, 1 week
  damage in corpus callosum: shows damage and scarring
  damage in hippocampus: does not seem to show much damage
  damage in striatum: shows obvious damage
  lateral ventricle: enlarged
